Experimental data published in patent US5670492A, “DC-89 derivatives” (priority 1994, dated 1997).
Like-named read-outs stand apart in the source and are kept apart here.

Key:
[1] = when used as injections; cited from earlier work
[2] = Test for Solubility in Water; format: physicochemical; conditions: room temperature
Protocol: A sample tube was charged with 0.7 mg of Compound (I), and 30 μl of water were added thereto at room temperature. The mixture was stirred, and the solubility in water was measured. When the compound was not dissolved, 30 μl of water was added thereto successively, and the mixture was stirred. The solubility in water was measured when the compound was dissolved.

HeLaS3 cells = assay: Growth Inhibitory Effect Against HeLaS3 cells; format: cell-based
Protocol: HeLaS3 cells were suspended in MEM medium containing 10% calf serum and 2 mM glutamine to a concentration of 2.67×10^4 cells/mi. The cell suspension thus prepared was put into wells of a 24-well culture plate in an amount of 0.75 ml per well. After the cells were incubated in a CO2 incubator overnight at 37° C., Compound (I) which had been appropriately diluted with a culture medium was added to each well in an amount of 0.25 ml.
The cells were further incubated in the CO2 incubator for 72 hours, and the culture supernatant was removed. Then, the cells were dispersed in a solution of trypsin and EDTA and recovered. The number of cells was counted using a cell counter. The concentration (IC50) of Compound (I) at which the growth of the cells is inhibited by 50% was calculated by comparing the number of untreated cells with the number of the cells treated with Compound (I) at known concentrations.

ddY-strain male mice = assay: Acute Toxicity; format: in vivo; conditions: i.v., mortality at 14 days after administration
Protocol: Compound (I) was intravenously administered to ddY-strain male mice each weighing 20±1 g. MLD (minimum lethal dose) was determined by observing the mortality at 14 days after administration.

Sarcoma 180 tumor = assay: Therapeutic Effect Against Sarcoma 180 Tumor; format: in vivo, male ddY-strain mice; conditions: Mus musculus, Sarcoma-180, iv, 168 h, read-out: T/C
Protocol: Five male ddY-strain mice each weighing 18-20 g were used for each group as test animals, and 5×10^5 Sarcoma 180 tumor cells were implanted at the axilla subcutaneously. One day after the implantation, 0.2 ml of a physiological saline containing Compound (I) at the concentration shown in Table 2 was intravenously administered to each mouse. T/C [T: average tumor volume (mm^3) of the group treated with the test compound, C: average tumor volume (mm^3) of the control group (to which […] of a physiological saline was intravenously administered)] was determined seven days after the implantation.

various bacteria = conditions: cited from earlier work
melanoma B-16 = conditions: cited from earlier work

Compound	solubility [2]	IC50 (HeLaS3 cells; Homo sapiens, HeLa S3, 72 h)	MLD (minimum lethal dose) (ddY-strain male mice)	antibacterial activity (various bacteria)	antitumor activity (melanoma B-16)	further results
COC(=O)c1c(C)[nH]c2c1C13CC1CN(C(=O)/C=C/c1ccc(OC)cc1)C3=CC2=O (centres unmarked) [(B)]	–	–	–	–	–	water-solubility [1]: lack satisfactory water-solubility
COC(=O)c1c(C)[nH]c2c(OC(=O)c3cccnc3)cc3c(c12)C(CBr)CN3C(=O)/C=C/c1ccc(OC)c(N(C)C)c1 (centres unmarked) [Compound 55]	> 18 mg/mL	0.43 nM	1.0 mg/kg	–	–	response vs control in vivo at 1 mg/kg (Sarcoma 180 tumor): 28%
COC(=O)c1c(C)[nH]c2c(OC(=O)NN3CCN(C)CC3)cc3c(c12)C(CBr)CN3C(=O)/C=C/c1ccc(OC)c(N(C)C)c1 (centres unmarked) [Compound 60]	> 20 mg/mL	0.94 nM	> 8.0 mg/kg	–	–	response vs control in vivo at 4 mg/kg (Sarcoma 180 tumor): 15%
COC(=O)c1c(C)[nH]c2c(OC(=O)NN(C)C)cc3c(c12)C(CBr)CN3C(=O)/C=C/c1ccc(OC)c(N(C)C)c1 (centres unmarked) [Compound 62]	> 20 mg/mL	–	2.0 mg/kg	–	–	IC50 (HeLaS3 cells; Homo sapiens, HeLa S3, 72 hours, read-out: IC50): 0.62 nM; response vs control in vivo at 2 mg/kg (Sarcoma 180 tumor; 2.0 mg/kg, single i.v. one day after s.c. implantation, tumor volume ratio seven days after implantation): 19%
CNN(C)C(=O)Oc1cc2c(c3c(C(=O)OC)c(C)[nH]c13)C(CBr)CN2C(=O)/C=C/c1ccc(OC)c(N(C)C)c1 (centres unmarked) [Compound 64]	> 15 mg/mL	1.1 nM	2.0 mg/kg	–	–	response vs control in vivo at 1.3 mg/kg (Sarcoma 180 tumor): 26%
COC(=O)c1c(C)[nH]c2c(OC(=O)c3ccc(CN4CCN(C)CC4)cc3)cc3c(c12)C(CBr)CN3C(=O)/C=C/c1ccc(OC)c(N(C)C)c1 (centres unmarked) [Compound 66]	> 20 mg/mL	1.1 nM	2.0 mg/kg	–	–	response vs control in vivo at 2 mg/kg (Sarcoma 180 tumor): 21%
COC(=O)c1c(C)[nH]c2c(OC(=O)NN3CCN(C)CC3)cc3c(c12)C(CCl)CN3C(=O)/C=C/c1cnc(OC)nc1 (centres unmarked) [Compound 69]	> 10 mg/mL	1.4 nM	4.0 mg/kg	–	–	response vs control in vivo at 4 mg/kg (Sarcoma 180 tumor): 40%
COC(=O)c1c(C)[nH]c2c(OC(=O)NN3CCN(C)CC3)cc3c(c12)C(CBr)CN3C(=O)/C=C/c1cnc(OC)nc1 (centres unmarked) [Compound 72]	–	–	4.0 mg/kg	–	–	Solubility in water [2]: > 10 mg/mL; IC50 (HeLaS3 cells; 72 hours): 1.6 nM; response vs control in vivo at 4 mg/kg (Sarcoma 180 tumor): 15%
COC(=O)c1cc2c([nH]1)C(=O)C=C1N(C(=O)c3cc4cc(OC)c(OC)c(OC)c4[nH]3)CC3CC123 (centres unmarked) [DC113]	–	–	–	antibacterial activity against various bacteria	anti-tumor activity against melanoma B-16	–
COC(=O)C1(C)NC2=C(C1=O)C13CC1CN(C(=O)c1cc4cc(OC)c(OC)c(OC)c4[nH]1)C3=CC2=O (centres unmarked) [DC-88A]	–	–	–	antibacterial activity against various bacteria	anti-tumor activity against melanoma B-16	–
COC(=O)C1(C)Nc2c(O)cc3c(c2C1=O)CC(Cl)CN3C(=O)c1cc2cc(OC)c(OC)c(OC)c2[nH]1 (centres unmarked) [DC-89A1]	–	–	–	antibacterial activity against various bacteria	antitumor activity against melanoma B-16	–
COC(=O)C1(C)Nc2c(O)cc3c(c2C1=O)C(CCl)CN3C(=O)c1cc2cc(OC)c(OC)c(OC)c2[nH]1 (centres unmarked) [DC-89A2]	–	–	–	antibacterial activity against various bacteria	antitumor activity against melanoma B-16	–
COC(=O)C1(C)Nc2c(O)cc3c(c2C1=O)CC(Br)CN3C(=O)c1cc2cc(OC)c(OC)c(OC)c2[nH]1 (centres unmarked) [DC-89B1]	–	–	–	antibacterial activity against various bacteria	antitumor activity against melanoma B-16	–
COC(=O)C1(C)Nc2c(O)cc3c(c2C1=O)C(CBr)CN3C(=O)c1cc2cc(OC)c(OC)c(OC)c2[nH]1 (centres unmarked) [DC-89B2]	–	–	–	antibacterial activity against various bacteria	antitumor activity against melanoma B-16	–
